Source: US12358892B2, “Metalloenzyme inhibitors for treating cancers, Alzheimer's disease, hemochromatosis, and other disorders” (Miralogx LLC, priority 2020, dated 2025)
Entries after “also recorded” stand apart in the source; their conditions may differ.

Experiments:
[1] = tested on: 12 human primary cell-based systems; assay: BioMAP Diversity PLUS panel, protein biomarker readouts and cytotoxicity
Excerpt: This example describes testing the compound prepared in Example 1 in the BioMAP Diversity PLUS (Eurofins Discovery, Burlingame, California) panel of 12 human primary cell-based systems designed to model different aspects of the human body in an in vitro format. The 12 systems in the Diversity PLUS panel allow test agent characterization in an unbiased way across a broad set of systems modeling various human disease states. BioMAP systems are constructed with one or more primary cell types from healthy human donors, with stimuli (such as cytokines or growth factors) added to capture relevant signaling networks that naturally occur in human tissue or pathological conditions. Vascular biology is modeled in both a Th1 (3C system) and a Th2 (4H system) inflammatory environment, as well as in a Th1 inflammatory state specific to arterial smooth muscle cells (CASM3C system). Additional systems recapitulate aspects of the systemic immune response including monocyte-driven Th1 inflammation (LPS system) or T cell stimulation (SAg system), chronic Th1 inflammation driven by macrophage activation (lMphg system) and the T cell-dependent activation of B cells that occurs in germinal centers (BT system). The BE3C system (Th1) and the BF4T system (Th2) represent airway inflammation of the lung, while the MyoF system models myofibroblast-lung tissue remodeling. Lastly, skin biology is addressed in the KF3CT system modeling Th1 cutaneous inflammation and the HDF3CGF system modeling wound healing.
The X-axis lists the quantitative protein-based biomarker readouts measured in each system. The Y-axis represents a log-transformed ratio of the biomarker readouts for the drug-treated sample (n=1) over vehicle controls (n≥6). The grey region around the Y-axis represents the 95% significance envelope generated from historical vehicle controls. Biomarker activities are annotated when two or more consecutive concentrations change in the same direction relative to vehicle controls, are outside of the significance envelope, and have at least one concentration with an effect size >20% (|log 10 ratio|>0.1). Biomarker key activities are described as modulated if these activities increase in some systems, but decrease in others. Cytotoxicity is indicated on the profile plot by a thin black arrow above the X-axis, and antiproliferative effects are indicated by a thick grey arrow. Cytotoxicity and antiproliferative arrows only require one concentration to meet the indicated threshold for profile annotation. As summarized in Table 2 below, the compound was active with 35 annotated readouts. Specifically, the compound impacted inflammation-related activities (decreased Eotaxin 3, VCAM-1, MCP-1, SAA, sTNFα, MIP-1α; increased IL-1α, IL-6; modulated IL-8), immunomodulatory activities (decreased CD40, sIL-1β, sIgG, M-CSF, sIL-17A, sIL-6, sIL-17F, sIL-2), tissue remodeling activities (decreased PAI-1, uPAR, αSMA, Keratin 8/18; increased collagen I, MMP-1), and hemostasis-related activities (increased TF).
BioMAP® panels consist of human primary cell-based systems designed to model different aspects of the human body in an in vitro format. BioMAP® systems are constructed with one or more primary cell types from healthy human donors, with stimuli (such as cytokines or growth factors) added to capture relevant signaling networks that naturally occur in human tissue or pathological conditions. Vascular biology is modeled in both a Th1 (3C system) and a Th2 (4H system) inflammatory environment, as well as in a Th1 inflammatory state specific to arterial smooth muscle cells (CASM3C system). Additional systems recapitulate aspects of the systemic immune response including monocyte-driven Th1 inflammation (LPS system) or T cell stimulation (SAg system), chronic Th1 inflammation driven by macrophage activation (Mphg system) and the T cell-dependent activation of B cells that occurs in germinal centers (BT system). […]

[2] = tested on: human primary endothelial cells; assay: BioMAP proliferation readout, endothelial cells; assay type: cell-based; details: 670 μM, 220 μM, 74 μM; concentrations not associated with cytotoxicity
Excerpt: (§1) The X-axis lists the quantitative protein-based biomarker readouts measured in each system. The Y-axis represents a log-transformed ratio of the biomarker readouts for the drug-treated sample (n=1) over vehicle controls (n≥6). The grey region around the Y-axis represents the 95% significance envelope generated from historical vehicle controls. Biomarker activities are annotated when two or more consecutive concentrations change in the same direction relative to vehicle controls, are outside of the significance envelope, and have at least one concentration with an effect size >20% (|log 10 ratio|>0.1). Biomarker key activities are described as modulated if these activities increase in some systems, but decrease in others. […] As summarized in Table 2 below, the compound was active with 35 annotated readouts. […]
(§2) Human primary cells in BioMAP® systems are used at early passage (passage 4 or earlier) to minimize adaptation to cell culture conditions and preserve physiological signaling responses. […] Test agents prepared in either DMSO (small molecules; final concentration ≤0.1%) or PBS (biologics) are added at the indicated concentrations 1-hr before stimulation, and remain in culture for 24-hrs or as otherwise indicated (48-hrs, MyoF system; 72-hrs, BT system (soluble readouts); 168-hrs, BT system (secreted IgG)). […]

T cells = assay: BioMAP proliferation readout, T cells; assay type: cell-based, human; details: 670 μM, 220 μM; concentrations not associated with cytotoxicity
Excerpt: as §1, §2

B cells = assay: BioMAP proliferation readout, B cells; assay type: cell-based, human; details: 670 μM, 220 μM, 74 μM; concentrations not associated with cytotoxicity
Excerpt: as §1, §2

[3] = tested on: coronary artery smooth muscle cells; assay: BioMAP proliferation readout, coronary artery smooth muscle cells; assay type: cell-based, human; details: 670 μM, 220 μM, 74 μM; concentrations not associated with cytotoxicity
Excerpt: as §1, §2

fibroblasts = assay: BioMAP proliferation readout, fibroblasts; assay type: cell-based, human; details: 670 μM; concentrations not associated with cytotoxicity
Excerpt: as §1, §2

[4] = Inflammation-related activities
[5] = lower three concentrations tested, immunomodulatory
[6] = lower three concentrations tested, inflammation-related
[7] = lower three concentrations tested, tissue remodeling

## c1ncc(C2=NCCC2)cc1C1=NCCC1 [Example 1]
[1]; Diversity PLUS Panel profile
  annotated readouts: 35
[1]; Immunomodulatory activities
  Decreased Activity: M-CSF: decreased; also recorded: M-CSF
  Decreased Activity: sIL-6: decreased; also recorded: inhibited; also recorded: sIL-6
  Decreased Activity: sIL-10 (Table 2) / sIL-1β: decreased
  Decreased Activity: sIL-17F: decreased; also recorded: SIL-17F
  Decreased Activity: sIgG: decreased and sigG
  Decreased activity: CD40: decreased and CD40
  Decreased activity: sIL-2: decreased
  Decreased activity: sIL-17A: decreased; also recorded: SIL-17A
[1]; [4]
  Decreased Activity: Eotaxin 3: decreased and Eot3
  Decreased Activity: MIP-1α: decreased
  Decreased Activity: SAA: decreased and SAA
  Decreased Activity: sTNFα: decreased; also recorded: inhibited; also recorded: sTNFα
  Decreased activity: MCP-1: decreased; also recorded: MCP-1
  Decreased activity: VCAM-1: decreased; also recorded: VCAM-1
  Increased Activity: IL-1α: increased and IL1a
  Increased Activity: IL-6: increased and IL6
  Modulated Activity: IL-8: modulated and IL8
[1]; Tissue remodeling activities
  Decreased Activity: Keratin 8/18: decreased; also recorded: Ker8-18
  Decreased Activity: PAI-1: decreased; also recorded: PAI-1
  Decreased Activity: uPAR: decreased and uPAR
  Decreased Activity: αSMA: decreased and aSMA
  Increased Activity: MMP-1: increased; also recorded: MMP1,
  Increased Activity: collagen I: increased; also recorded: Col-1
[1]; lower three concentrations tested
  annotated readouts: 23
[1]; lower three concentrations tested, hemostasis-related
  TF: increased
[1]; [5]
  sIL-1β: decreased
  sIL-2: decreased
  sIL-6: decreased
  sIL-17A: decreased
  sIL-17F: decreased
  sIgG: decreased
[1]; [6]
  Eotaxin 3: decreased
  IL-1α: increased
  IL-6: increased
  IL-8: increased
  MCP-1: decreased
  SAA: decreased
  VCAM-1: decreased
  sTNFα: decreased
[1]; [7]
  MMP-1: increased
  PAI-1: decreased
  collagen I: increased
[2]
  antiproliferative effect on human primary endothelial cells: antiproliferative
T cells
  antiproliferative effect on T cells: antiproliferative
B cells
  antiproliferative effect on B cells: antiproliferative
[3]
  antiproliferative effect on coronary artery smooth muscle cells: antiproliferative
fibroblasts
  antiproliferative effect on fibroblasts: antiproliferative
